# Results from patent US7563951B2, “Soybean seeds and plants exhibiting natural herbicide resistance” (Natural Genes, Inc., priority 2002, dated 2009).
# Tested on: soybean seeds
# Assay: Seed pre-soak in 2 percent aqueous glyphosate, then planting and observing germination
# Type: in vivo, Glycine max L.
# Settings: six hour soak at room temperature, observed three weeks
# Description: The identification of soybean germplasm within which naturally-occurring herbicide resistance genes reside involved the screening of thirty-four soybean lines obtained from publicly-available seed stocks. The initial step in the screening was to pre-soak individual batches of seeds representing the thirty-four test lines in a 2 percent aqueous solution of glyphosate at room temperature. The individual batches of seeds were immersed in this 2 percent solution for a period of six hours. […] This screening step was essential to determine how seeds responded to the herbicide. Twelve of the varieties were present as approximately 2,500 seeds. There were approximately 5,000 seeds of the remaining 22 varieties. Each variety was immersed in separate containers to assure variety identification and isolation. The varieties that were tested are identified in Table 1.
# After this initial pre-soak, each lot of seeds was labeled and was placed in a flat (36″×18″×9″) containing a soil/peat mixture growth medium, with the mixture being 50 percent top soil (sandy loam) and 50 percent peat moss, that was provided at a depth of 9 inches. […]
# Germination and emergence of any seedlings was then observed for the next three weeks. […] Of these five lines, the ‘Dwight’ and ‘Jack’ varieties were chosen for further screening using large quantities of seeds.
compound,measurement,value
"O=C(O)CNCP(=O)(O)O [glyphosate, N-(phosphonomethyl)glycine]",Germination of herbicide-treated soybean seeds,failed to germinate
